Where two headings read alike, the source gives them in different places. A value given as a limit tells only on which side of the number the result lay.

The results in this text go back to US20230056135A1, “MONOMER AND MULTIMERIC ANTI-HBV AGENTS” (priority 2018, published 2023).

A short description of data set [1]: Cellular toxicity assay in human PBM cells. In kind it is cell-based. The method, then:
(§1) The toxicity of the compounds was assessed in Vero, human PBM, CEM (human lymphoblastoid), MT-2, and HepG2 cells, as described previously (see Schinazi R. F., Sommadossi J.-P., Saalmann V., Cannon D. L., Xie M.-Y., Hart G. C., Smith G. A. & Hahn E. F. Antimicrob. Agents Chemother. 1990, 34, 1061-67). Cycloheximide was included as positive cytotoxic control, and untreated cells exposed to solvent were included as negative controls. The cytotoxicity IC50 was obtained from the concentration-response curve using the median effective method described previously (see Chou T.-C. & Talalay P. Adv. Enzyme Regul. 1984, 22, 27-55; Belen'kii M. S. & Schinazi R. F. Antiviral Res. 1994, 25, 1-11).

Data set [2] in a line: Cellular toxicity assay in CEM cells. In kind it is cell-based, human. The note with it: human. The method, then:
as §1

Data set [3] in a line: Cellular toxicity assay in Vero cells. In kind it is cell-based. As to conditions: African green monkey. The protocol: as §1
A short description of data set [4]: Cellular toxicity assay in HepG2 cells. In kind it is cell-based. The note with it: human. The method, then: as §1
The next data set has as its system wild type HBV. The experiment in a line: Anti-HBV assay in AD-38 cell line (HBV in culture supernatant). The note with it: Hepatitis B virus; for EC50: read-out: Anti-HBV activity EC50; for EC90: read-out: Anti-HBV activity EC90. In kind it is cell-based. The method, then: The anti-HBV activity of the compounds was determined by treating the AD-38 cell line carrying wild type HBV under the control of tetracycline (see Ladner S. K., Otto M. J., Barker C. S., Zaifert K., Wang G. H., Guo J. T., Seeger C. & King R. W. Antimicrob. Agents Chemother. 1997, 41, 1715-20). Removal of tetracycline from the medium [Tet (−)] results in the production of HBV. The levels of HBV in the culture supernatant fluids from cells treated with the compounds were compared with that of the untreated controls. Control cultures with tetracycline [Tet (+)] were also maintained to determine the basal levels of HBV expression. 3TC was included as positive control.
The median effective concentrations (EC50) ranges of several of the compounds described herein against HBV are shown in Table 3: […]

The mark [5] stands for this setting: human, human PBM cells, read-out: Cytotoxicity, CC50 (μM) PBM.
[6] abbreviates: CEM lymphoblastoid cells, CEM cells, read-out: Cytotoxicity, CC50 (μM) CEM.
[7] abbreviates: Vero cells, read-out: Cytotoxicity, CC50 (μM) VERO.
Setting [8] is: HepG2 cells, read-out: Cytotoxicity, CC50 (μM) HepG2.

By EC50 is commonly meant the concentration needed to bring the measured effect to its halfway point. Usually EC90 stands for the point of the concentration-response curve where the effect stands at 90%. For the compound `Fc1ccc(C2N=C(c3ccccn3)NC(CN3CCOCC3)=C2C#CC2CC2)c(Cl)c1` (stereo not shown) [Compound 8, 4-((6-(2-Chloro-4-fluorophenyl)-5-(cyclopropylethynyl)-2-(pyridin-2-yl)-3,6-dihydropyrimidin-4-yl)methyl)morpholine], the CC50 in data set [1] (setting [5]) is 62 µM; in data set [2] (setting [6]), 20 µM; in data set [3] (setting [7]), 49 µM; in data set [4] (setting [8]), 36 µM. Besides, the EC50 with wild type HBV (AD-38 cell line, Tet (-)) lay within 100 to 1000 nM. Further, the EC90 in the data set with wild type HBV (AD-38 cell line, Tet (-)) lay in the range of 100 to 1000 nM.

As to `Cc1c(C(=O)C(=O)NCCCN(CCCNC(=O)C(=O)c2c(C)c(C(=O)Nc3ccc(F)c(F)c3)n(C)c2C)CCCNC(=O)C(=O)c2c(C)c(C(=O)Nc3ccc(F)c(F)c3)n(C)c2C)c(C)n(C)c1C(=O)Nc1ccc(F)c(F)c1` [Compound 16a, 4,4′,4″-(2,2′,2″-((Nitrilotris(propane-3,1-diyl))tris(azanediyl))tris(2-oxoacetyl))tris(N-(3,4-difluorophenyl)-1,3,5-trimethyl-1H-pyrrole-2-carboxamide)], the CC50 in data set [1] (setting [5]) is over 100 µM; in data set [2] (setting [6]), over 100 µM; in data set [3] (setting [7]), 9 µM; in data set [4] (setting [8]) it was over 100 µM. Further, the 50% effective concentration (EC50) in the data set with wild type HBV (AD-38 cell line, Tet (-)) fell in the range of 100 to 1000 nM. The EC90 in the data set on wild type HBV (AD-38 cell line, Tet (-)) was 1000 to 10000 nM.

For `Fc1ccc(C2N=C(c3nccs3)NC(CN3CCOCC3)=C2C#CC2CC2)c(Br)c1` (stereo not shown) [Compound 17, 4-((6-(2-Bromo-4-fluorophenyl)-5-(cyclopropylethynyl)-2-(thiazol-2-yl)-3,6-dihydropyrimidin-4-yl)methyl)morpholine], the CC50 worked out at 19 µM in data set [1] (setting [5]), 17 µM in data set [2] (setting [6]), 23 µM in data set [3] (setting [7]) and 81 µM in data set [4] (setting [8]). The EC50 in the data set with wild type HBV (AD-38 cell line, Tet (-)) fell in the range of 10 to 100 nM. Moreover, the EC90 in the data set with wild type HBV (AD-38 cell line, Tet (-)) was 100 to 1000 nM.

`CCOC(=O)C1=C(CNCc2cn(CCCCCCCCn3cc(CNCC4=C(C(=O)OCC)C(c5ccc(F)cc5Br)N=C(c5nccs5)N4)nn3)nn2)NC(c2nccs2)=NC1c1ccc(F)cc1Br` (stereo not shown) [Compound 17c, Diethyl 6,6′-((((octane-1,8-diylbis(1H-1,2,3-triazole-1,4-diyl))bis(methylene))bis-(azanediyl))bis(methylene))bis(4-(2-bromo-4-fluorophenyl)-2-(thiazol-2-yl)-1,4-dihydropyrimidine-5-carboxylate)]: the CC50 in data set [1] (setting [5]) is 11 µM; in data set [2] (setting [6]), 7.1 µM; in data set [3] (setting [7]), over 100 µM; in data set [4] (setting [8]), 38.5 µM. Also, the EC50 in the data set on wild type HBV (AD-38 cell line, Tet (-)) lay within 1000 to 10000 nM. Besides, the EC90 in the data set with wild type HBV (AD-38 cell line, Tet (-)) lay in the range of 1000 to 10000 nM.

As to `CCOC(=O)C1=C(CNCc2cn(CCCCCCCCCCCCn3cc(CNC(=O)C(=O)c4c(C)c(C(=O)Nc5ccc(F)c(F)c5)n(C)c4C)nn3)nn2)NC(c2nccs2)=NC1c1ccc(F)cc1Br` (stereo not shown) [Compound 23, Ethyl 4-(2-bromo-4-fluorophenyl)-6-((((1-(12-(4-((2-(5-((3,4-difluorophenyl)-carbamoyl)-1,2,4-trimethyl-1H-pyrrol-3-yl)-2-oxoacetamido)methyl)-1H-1,2,3-triazol-1-yl)dodecyl)-1H-1,2,3-triazol-4-yl)methyl)amino)methyl)-2-(thiazol-2-yl)-1,4-dihydropyrimidine-5-carboxylate], the CC50 in data set [1] (setting [5]) is over 100 µM; in data set [2] (setting [6]) it was 14 µM; in data set [3] (setting [7]), over 100 µM; in data set [4] (setting [8]) it was 63 µM. Also, the EC50 in the data set with wild type HBV (AD-38 cell line, Tet (-)) was in the range of 10 to 100 nM. Besides, the EC90 in the data set on wild type HBV (AD-38 cell line, Tet (-)) was in the range of 100 to 1000 nM.

With `O=C(Nc1ccc(F)c(Cl)c1)N1[C@@H]2CC[C@H]1c1c(-c3cscn3)n[nH]c1C2` [Compound 33, (4S,7R)—N-(3-Chloro-4-fluorophenyl)-3-(thiazol-4-yl)-1,4,5,6,7,8-hexahydro-4,7-epiminocyclo hepta[c]pyrazole-9-carboxamide], the CC50 stood at 32 µM in data set [1] (human), 32 µM in data set [2], 61 µM in data set [3] and 19 µM in data set [4]. In addition, the EC50 with wild type HBV (AD-38 cell line, Tet (-)) lay within 100 to 1000 nM. Besides, in the data set on wild type HBV (AD-38 cell line, Tet (-)), the EC90 was 1000 to 10000 nM.

In the case of `O=S(=O)(NC1CC2=C(C#CC3CC3)C(c3ccc(F)cc3Cl)N=C(c3nccs3)N2C1)C1CC1` (stereo not shown) [Compound 45, N-(3-(2-Chloro-4-fluorophenyl)-4-(cyclopropylethynyl)-1-(thiazol-2-yl)-3,5,6,7-tetrahydro-pyrrolo[1,2-c]pyrimidin-6-yl)cyclopropanesulfonamide], the CC50 in data set [1] (setting [5]) was 75 µM; in data set [2] (setting [6]), 24 µM; in data set [3] (setting [7]), over 100 µM; in data set [4] (setting [8]), over 100 µM. Besides, in the data set with wild type HBV (AD-38 cell line, Tet (-)), the EC50 is 10 to 100 nM. In addition, the concentration for an effect of 90% (EC90) in the data set on wild type HBV (AD-38 cell line, Tet (-)) was in the range of 100 to 1000 nM.

Turning to `CCOC(=O)C1=C(CNCc2cn(CCOCCOCCOCCOCCOCCn3cc(CNC(=O)C(=O)c4c(C)c(C(=O)Nc5ccc(F)c(F)c5)n(C)c4C)nn3)nn2)NC(c2nccs2)=NC1c1ccc(F)cc1Br` (stereo not shown) [Compound 50, Ethyl 4-(2-bromo-4-fluorophenyl)-6-((((1-(17-(4-((2-(5-((3,4-difluorophenyl)carbamoyl)-1,2,4-trimethyl-1H-pyrrol-3-yl)-2-oxoacetamido)methyl)-1H-1,2,3-triazol-1-yl)-3,6,9,12,15-pentaoxaheptadecyl)-1H-1,2,3-triazol-4-yl)methyl)amino)methyl)-2-(thiazol-2-yl)-1,4-dihydropyrimidine-5-carboxylate], the CC50 in data set [1] (setting [5]) was 99 µM; in data set [2] (setting [6]) it was 27 µM; in data set [3] (setting [7]), over 100 µM; in data set [4] (setting [8]) it was over 100 µM. Moreover, the EC50 with wild type HBV (AD-38 cell line, Tet (-)) is 100 to 1000 nM. In the data set with wild type HBV (AD-38 cell line, Tet (-)), the EC90 lay in the range of 1000 to 10000 nM.

Consider `Cc1c(C(=O)C(=O)NCCCCO[P@@](=O)(N[C@@H](C)C(=O)OC(C)C)Oc2ccccc2)c(C)n(C)c1C(=O)Nc1ccc(F)c(F)c1` [Compound 58, Isopropyl ((S)-(4-(2-(5-((3,4-difluorophenyl)carbamoyl)-1,2,4-trimethyl-1H-pyrrol-3-yl)-2-oxoacetamido)butoxy)(phenoxy)phosphoryl)-L-alaninate], for which the CC50 was 7 µM in data set [1] (human PBM cells, read-out: Cytotoxicity, CC50 (μM) PBM); 10 µM in data set [2] (CEM cells, read-out: Cytotoxicity, CC50 (μM) CEM); 12 µM in data set [3] (setting [7]); 29 µM in data set [4] (setting [8]). The EC50 in the data set with wild type HBV is 100 to 1000 nM. The EC90 in the data set on wild type HBV is 1000 to 10000 nM.

In the case of `Cc1c(C(=O)C(=O)NCCCCCCCCO)c(C)n(C)c1C(=O)Nc1ccc(F)c(F)c1` [Compound 60, N-(3,4-Difluorophenyl)-4-(2-(8-hydroxyoctylamino)-2-oxoacetyl)-1,3,5-trimethyl-1H-pyrrole-2-carboxamide], the CC50 in data set [1] (setting [5]) was 36 µM; in data set [2] (setting [6]) it was 4 µM; in data set [3] (setting [7]) it was 14 µM; in data set [4] (setting [8]), 63 µM. The EC50 in the data set with wild type HBV (AD-38 cell line, Tet (-)) fell in the range of 10 to 100 nM. Further, in the data set on wild type HBV (AD-38 cell line, Tet (-)), the EC90 is 100 to 1000 nM.

For `Cc1c(C(=O)C(=O)NCCCB2OC3CC4CC(C4(C)C)C3(C)O2)c(C)n(C)c1C(=O)Nc1ccc(F)c(F)c1` (stereo not shown) [Compound 62, N-(3,4-difluorophenyl)-1,3,5-trimethyl-4-(2-oxo-2-((3-(3a,5,5-trimethylhexahydro-4,6-methanobenzo[d][1,3,2]dioxaborol-2-yl)propyl)amino)acetyl)-1H-pyrrole-2-carboxamide], the CC50 in data set [1] (setting [5]) is 13 µM; in data set [2] (setting [6]), 4 µM; in data set [3] (setting [7]), 7 µM; in data set [4] (setting [8]) it was 6 µM. The EC50 in the data set on wild type HBV (AD-38 cell line, Tet (-)) was 10 to 100 nM. Besides, in the data set with wild type HBV (AD-38 cell line, Tet (-)), the EC90 fell in the range of 10 to 100 nM.

Take `Cc1c(C(=O)C(=O)NCCCB(O)O)c(C)n(C)c1C(=O)Nc1ccc(F)c(F)c1` [Compound 64, (3-(2-(5-((3,4-Difluorophenyl)carbamoyl)-1,2,4-trimethyl-1H-pyrrol-3-yl)-2-oxoacetamido)propyl)boronic acid]: the CC50 in data set [1] (setting [5]) came out at 62 µM; in data set [2] (setting [6]) it was 26 µM; in data set [3] (setting [7]), 76 µM; in data set [4] (setting [8]), 98 µM. The EC50 with wild type HBV (AD-38 cell line, Tet (-)) is 10 to 100 nM. Further, the EC90 in the data set with wild type HBV (AD-38 cell line, Tet (-)) lay within 10 to 100 nM.

In the case of `C#CCNC(=O)C(=O)c1c(C)c(C(=O)Nc2ccc(F)c(F)c2)n(CC#CC)c1C` [Compound 119, 1-(But-2-yn-1-yl)-N-(3,4-difluorophenyl)-3,5-dimethyl-4-(2-oxo-2-(prop-2-yn-1-ylamino)acetyl)-1H-pyrrole-2-carboxamide], the CC50 in data set [1] (setting [5]) and in data set [4] (setting [8]) was over 100 µM throughout. The EC50 with wild type HBV lay within 10 to 100 nM.

On to `C#CCn1c(C)c(C(=O)C(=O)NC(C)(C)C#C)c(C)c1C(=O)Nc1ccc(F)c(F)c1` [Compound 120, N-(3,4-Difluorophenyl)-3,5-dimethyl-4-(2-((2-methylbut-3-yn-2-yl)amino)-2-oxoacetyl)-1-(prop-2-yn-1-yl)-1H-pyrrole-2-carboxamide], for which, in data set [1] (setting [5]), the CC50 is over 100 µM. For the same compound, the CC50 in data set [4] (setting [8]) was over 100 µM. Further, in the data set on wild type HBV (AD-38 cell line, Tet (-)), the EC50 lay in the range of 0.01 to 0.1 nM and the EC90 was 1 to 10 nM.
